From article PMC12703428, “Development of Granzyme A Turn‐ON Fluorescent Activity‐Based Probes” (Chembiochem, 2025)
Square brackets hold non-standard residues; d marks the D form. Ends that are not written are not given here. Oic = O=C(O)[C@@H]1C[C@@H]2CCCC[C@@H]2N1; Tic = O=C(O)[C@@H]1Cc2ccccc2CN1

Molecular target: T1, mouse GzmA (mGzmA) (Mus musculus, UniProt P11032)
T1 construct: CSB-EP010081MO for active, mature form; purchased Cusabio CSB-EP010081MO
T1 sequence (P11032 29-260): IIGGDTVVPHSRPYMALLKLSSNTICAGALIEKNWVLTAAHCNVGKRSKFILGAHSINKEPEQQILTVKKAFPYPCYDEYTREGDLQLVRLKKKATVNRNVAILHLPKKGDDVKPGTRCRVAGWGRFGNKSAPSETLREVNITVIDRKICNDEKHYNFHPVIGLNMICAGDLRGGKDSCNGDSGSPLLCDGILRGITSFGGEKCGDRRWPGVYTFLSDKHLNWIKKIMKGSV
Assay: In-gel fluorescence labeling of mGzmA
Format: biochemical
Details: mGzmA 1 μM, 24 h, 37 °C; for Labeling of mGzmA (in-gel Cy5 fluorescence): probe 200 nM or 1 μM
Method: Figure 3 GzmA ABPs covalently and competitively label active human and mouse GzmA. […] Recombinant hGzmA (100 nM) was incubated with varying concentrations of each ABP at 37 °C. B) Competitive labeling of hGzmA. Recombinant hGzmA (100 nM) was preincubated with covalent inhibitors 1 or 2 (5 μM) for 2 h, followed by labeling with ABPs 3 –5 (50 nM) for 2 h at 37 °C. Note: Pro‐form of hGzmA (the first lane) is not effectively stained by SYPRO‐Ruby. C) Structure of qABP 6. D) Quenched natures of 5 and 6. […] F) Labeling of mGzmA (1 μM) with 5 and 6 (1 μM, 24 h, 37 °C). Protein samples were analyzed by SDS‐PAGE and in‐gel fluorescence scanning for Cy5 signal and SYPRO Ruby staining.
Sulfo-Cy5 N N P O 1 µM 100 nM
7 HN NH2 In-gel fluorescence: […]
mGzmA In-gel fluorescence: mGzmA In-gel fluorescence:
Supplementary Figure 1. (A) Chemical structure of qABP 7. (B) Labeling of mGzmA (1 µM, 24 h, 37 °C) and hGzmA (100 nM, 2 h, 37 °C) by 1 µM or 100 nM of 5, 6, and 7, respectively. (C) Labeling of mGzmA (1 µM, 24 h, 37 °C) by 200 nM of 5, 6, and 7. […] Protein samples were analyzed by SDS-PAGE and in-gel fluorescence scanning for Cy5 signal. […]
Briefly, hGzmA (50 nM) was incubated with either inhibitor 1 or 2 (200 nM), and GzmA fluorogenic substrate […] (100 µM) in 50 mM Tris, 150 mM NaCl, 0.01% Triton X-100 (pH 8) for 15 hr at 37 °C. Recorded fluorescence at Ex/Em: 380/460 nm for residual GzmA […]
Cat. No. CRL-2570) and 4T1 (ATCC Cat. No. CRL-2539) cells were cultured in RPMI supplemented with 10% fetal bovine serum (FBS), 1% penicillin/streptomycin (PS), and 2 mM L-glutamine, while HEK293T and MDA-MB-231 cells (ATCC Cat. No. HTB-26) were cultured in DMEM supplemented likewise as described above. […] The supernatant was collected, and protein concentration was measured using a Pierce BCA protein assay. […]
C. In-gel fluorescence imaging […]
Conditions for probe/inhibitor treatment for in-gel fluorescence analysis: Inhibitors and probes were incubated with active (or pro-) GzmA followed by treatment with 4X SDS reducing sample buffer. […]

| Substance | Labeling of mGzmA (in-gel Cy5 fluorescence) | Concentration dependence of labeling of mGzmA (probe 1, 0.5, 0.2 µM, in-gel fluorescence) |
| --- | --- | --- |
| GFFR [compound 7] | lower labeling efficiency for both hGzmA and mGzmA compared with probes 5 and 6 | – |
| [Tic]G[Oic]R [compound 6] | efficiently (and slightly more strongly than 5) labeled | concentration‐dependent labeling of mGzmA |
